Reference: EP1101496A1, “THERAPEUTIC AGENTS FOR ALLERGIC DISEASES” (FUJI YAKUHIN KOGYO KABUSHIKI KAISHA, priority 1998, dated 2000)

Assays:
[1] = test system: mouse scratching behavior; assay: Scratching behavior in experimental atopic dermatitis model; type: in vivo, mice; conditions: for % Inhibition (scratching behavior) / Scratching Behavior (Times) (Average± Deviation): 0.1% in ethanol painted on auricles 1 hour pre-elicitation; for % Inhibition (scratching behavior): 15 to 30 min and 30 to 45 min post-elicitation durations, versus solvent control; for Scratching Behavior (Times) (Average± Deviation): counts for the 15 to 30 min and 30 to 45 min post-elicitation durations
Description: Mice were passively sensitized with anti-DNP IgE Ab and then elicited by painting 0.1% DNFB in ethanol onto both sides of a pair of mouse auricles […] in the same manner as in Example 1. Five minutes pre-elicitation, an ethanolic solution containing 0.3% of Compound No. 20 was painted onto both sides of a pair of the auricles at a dose of 10 µL per each side. Tacrolimus (Fujisawa Pharmaceutical Co., Ltd.) was used as a positive control drug. An ethanolic solution containing 0.1% of the positive control drug was prepared just prior to use and then painted onto the mouse auricles 1 hour pre-elicitation in the same manner as for the painting of Compound No. 20. A negative control group was painted with a solvent alone (6 animals per group).
From the point immediately after elicitation, each mouse was housed individually in a comparted acrylic cage and observed by taking a video without any attendant up to 2 hours after elicitation (Inagaki, N., et al., The European Journal of Pharmacology, 367: 361-371, 1999). After finishing such a video recording, scratching behavior by mouse hind paws to a pair of ears was visually examined for each mouse and integrated scratching behaviors were counted during 6 post-elicitation durations for 20 minutes each; 0 to 20 min., 20 to 40 min., 40 to 60 min., 60 to 80 min., 80 to 100 min., and 100 to 120 min. In this experiment, an action from a start to scratch the ear by the mouse hind paw to a release of the hind paw is counted as one scratching behavior.
Mice were passively sensitized with anti-DNP IgE Ab and then elicited with 0.1% DNFB in ethanol 24 hours post-sensitization in the same manner as in Example 12. One hour pre-elicitation, a 0.1% solution of a metalloproteinase inhibitor (Compound No. 20 or 21) in ethanol was painted onto both sides of a pair of the auricles at a dose of 10 µL per each side. A negative control group was painted with a solvent alone. From the point immediately after the elicitation, each mouse was housed individually in a comparted cage and observed by taking a video without any attendant up to 2 hours thereafter (3 animals per group). In the same manner as in Example 12, scratching behaviors by mouse hind paws were counted for every 15 minutes: 8 post-elicitation durations; 0 to 15 min., 15 to 30 min., 30 to 45 min., 45 to 60 min., 60 to 75 min., 75 to 90 min., 90 to 105 min., and 105 to 120 min.

[2] = Body weight gain in sensitized mice (experimental atopic dermatitis model); type: in vivo; conditions: painted on auricles twice a day; Compound No. 8 50 µg/ear/dose, prednisolone 5 µg/ear/dose; Days 1, 4 and 7; versus solvent control (ethanol)
Description: Experimental atopic dermatitis model mice sensitized in the same manner as in Example 1 were examined for influence on body weight gains.
A solution of a test metalloproteinase inhibitor (Compound No. 8; 50 µg/ear/dose, twice a day) in ethanol or a solution of prednisolone (5 µg/ear/dose, twice a day) in ethanol was administered to mice (5 animals per group) by painting onto both sides of a pair of the auricles, not only one hour prior to elicitation but also 0.25, 3, 4, 5 and 6 days post-elicitation. Each mouse was measured for its body weight not only immediately before the start in painting but also on Days 1, 4 and 7 after the start in painting. Each gain in body weight was calculated and considered to indicate an effect on body weight changes affected by said treatments.

[3] = Mouse body weight gain (side-effect index); type: in vivo, mice; conditions: average ± standard deviation; once a day Days 0-5; Compound No. 8 or 10 60 mg/kg s.c., prednisolone 10 mg/kg i.p.
Description: Next the mice were measured for their body weight.

Allergic Rhinitis = assay: Allergic rhinitis model (nasal airway resistance); type: in vivo, Guinea pigs; conditions: 15 mg/kg s.c. one hour prior to rhinitis-induction; 20 minutes after antigen-challenge
Description: Guinea pigs (male, Std:Hartley, 3 weeks old) were housed and fed in a aluminum cage at a rate of up to 5 animals per cage. After acclimatization for 1 week, the guinea pigs were administered intravenously with an anti-ovalbumin antibody (Nihon Bioresearch Inc., Hajima Institute; antibody titer by a 3-hour homologous passive cutaneous anaphylaxis reaction, 1 : 8192) prepared according to the Orange & Moore method (Orange, R. P. and Moore, E. G., The Journal of Immunology 116: p.392-397, 1976) into their auricle vein at a dose of 0.3 mL/animal for passive sensitization. Twenty four to twenty six hours after sensitization under conditions of fast and free access to drinking water, the sensitized guinea pigs were anesthetized with urethane (1.2 g/kg, intraperitoneal administration), fixed in a supine position, and mediad excised cervically to expose tracheas. […] Variations of the ventilatory overflow were quantitatively recorded on a recticoder (RECTI-HORIZ-8K, Nippon Denki Sanei K.K.) for 20 minutes after antigen-challenge.
Wave height (cm) was measured on recorded papers and a nasal airway resistance value was calculated according to the following formula: Percent Increase (%) in Nasal Airway Resistance =((Observed Value)-(Value prior to Administration))/((Complete Obstruction)-(Value prior to Administration))× 100 [formula] […]

[4] = test system: Experimental Bronchial Asthma Model; assay: Experimental bronchial asthma model (ovalbumin-sensitized, airway resistance and asthmatic death); type: in vivo, Guinea pigs
Description: Guinea pigs (female, Std:Hartley, 3 weeks old, 200 to 250 g) were individually housed in a plastic chamber (width, 200 mm; depth, 300 mm; height, 167 mm). Aqueous ovalbumin (10 mg/mL) was administered to the guinea pigs once a day for sensitization by 10 min. inhalation with a nebulizer (5B, Nippon Shoji K.K.: flow rate, 6 L/min.) at a dose of 10 mg/mL during 8 cosecutive days. On Day 7 after the final sensitization, the guinea pigs were housed in a plastic chamber and inhaled using a nebulizer with a solution of ovalbumin (10 mg/mL) in physiological saline for 1 min. for elicitation (Matsumoto, T., et al., The Journal of Pharmacology and Experimental Therapeutics, 269: 1236-1244, 1994). The number of animals employed in the experiment was set to the extent there are at least 6 as individuals escaping asthmatic death. A solution of a test metalloproteinase inhibitor (Compound No. 8, 15 mg/kg) in water for injection was administered subcutaneously twice, i.e., 24 hours and 2 hours prior to elicitation. Similarly, the solvent alone was also administered to a negative control group. A suspension of prednisolone (10 mg/kg) in 0.5% aqueous methyl cellulose was administered orally twice, i.e., 24 hours and 2 hours prior to elicitation. Similarly, the solvent alone was also administered to another control group.
The evaluation for efficacies was conducted in terms of airway resistance. For this purpose, an apparatus dedicated to the measurement of airway resistance (K.K. Medical Agent) was employed. Measurement includes setting a guinea pig in a test chamber under a not-anesthetized condition, applying sinusoidal pressure waves of 30 Hz components to a part below the neck of the animal from the back side of the chamber, measuring respiratory waves of 30 Hz components leaking through the mouth (volume of 30 Hz air flow passing through the respiratory tract) in front of the neck, and calculating airway resistance mechanically. Measurement was carried out immediately prior to the first drug treatment (24 hours before elicitation), just prior to elicitation, 10 minutes, 1, 2, 4, 6, and 8 hours post-elicitation.
It was visually observed by a person carrying out said test in terms of the appearance of cyanosis or suffocative death (asthmatic death) due to respiratory obstruction.
Guinea pigs were sensitized with ovalbumin and asthma was induced on Day 7 after final sensitization in the same manner as in Example 18. The number of animals employed in the experiment was set to the extent there are at least 6 as individuals escaping asthmatic death (8 to 11 animals/group). In the same manner as in Example 18, the animals were measured for airway resistance mechanically and each percent change (%) in airway resistance was calculated (each value just prior to elicitation was set as 100%). Each percent amelioration in airway resistance was calculated from the percent changes in airway resistance according to the following formula: Amelioration in Airway Resistance (%) = 1 -[((Percent Change in Airway Resistance after Drug-Administration)-(Value just prior to Challenge (100)))/((Percent Change in Airway Resistance after Solvent -Administration)-(Value just prior to Challenge (100)))]× 100 [formula]
A solution of a test metalloproteinase inhibitor (Compound No. 22: 15 mg/kg or 30 mg/kg) in water for injection or the solvent alone as a negative control was administered to each animal subcutaneously twice, i.e., 24 hours and 2 hours prior to elicitation.

[5] = suffocative death due to cyanosis just after elicitation, Compound No. 8 15 mg/kg s.c., prednisolone 10 mg/kg orally, 24 and 2 hours prior to elicitation

Compound	% Inhibition (scratching behavior) [1] [%]	Scratching Behavior (Times) (Average± Deviation) [1]	inhibitory efficacy on scratching in the 20 to 40 min post-elicitation duration (FIG. 8) ([1]; 0.3% Compound No. 20 versus 0.1% tacrolimus, painted on auricles)	efficacy on mouse scratching behavior (FIG. 8) ([1]; 0.3% ethanolic solution painted on auricles 10 µL per side 5 minutes pre-elicitation, observed up to 2 hours)	gain in body weight (FIG. 9) [2]	Body Weight Gain, Day 5 [3]	Body Weight Gain, Day 7 [3]	Body Weight Gain, Day 10 [3]	increase in nasal airway resistance due to antigen challenge (FIG. 14) (Allergic Rhinitis)	airway resistance (FIG. 11) ([4]; 15 mg/kg s.c. 24 hours and 2 hours prior to elicitation, IAR 1 hour and LAR 6 hours post-elicitation)	% Mortality [4, 5] [%]	(Dead Animals)/(Tested Animals) [4, 5]
CNC(=O)[C@H](Cc1ccc(NC(=N)N)cc1)NC(=O)[C@H](CC(C)C)C(CCCc1ccccc1)C(=O)NO.Cl (single isomer, unassigned) [Compound No. 20, N-[4-(N-hydroxyamino)-2(R)-isobutyl-3(R or S)-(3-phenyltrimethylene)succinyl]-L-4'-guanidophenylalanine-N-methylamide 1 hydrochloride]	40.7	124.0 ± 43.6	higher than that of tacrolimus	apparently inhibits mouse scratching behavior	–	–	–	–	–	–	–	–
CNC(=O)[C@H](Cc1ccc(N=C(N)N)cc1)NC(=O)[C@@H](CC(=O)NO)CC(C)C.O=S(=O)(O)O [Compound No. 21, N-[4-(N-hydroxyamino)-2(R)-isobutylsuccinyl]-L-4'-guanidophenylalanine-N-methylamide 1 sulfate]	54.1	96.0 ± 32.6	–	–	–	–	–	–	–	–	–	–
CNC(=O)[C@H](Cc1ccc(NC(=N)N)cc1)NC(=O)[C@H](CC(C)C)C(CCCc1ccccc1)C(=O)NO (single isomer, unassigned) [Compound No. 8, N-[4-(N-hydroxyamino)-2(R)-isobutyl-3(R or S)-(3-phenyltrimethylene)succinyl]-L-4'-guanidophenylalanine-N-methylamide 1 acetate]	–	–	–	–	almost equivalent to that in the solvent control group	0.57± 0.61	0.77± 0.55	1.20± 0.26	markedly ameliorates an increase in nasal airway resistance	significant reduction of the increased airway resistance	0.0	0/10
